What was measured:
[1] = Clearance in rat hepatocytes assessed as measured per million cells at 0.1 to 1 uM measured for 120 mins by LC-MS/MS analysis; type: ADME, cell-based, Hepatocyte; details: dose 0.1-1 µM
[2] = biological target: E3 ubiquitin-protein ligase CBL (Homo sapiens, UniProt P22681); assay: Inhibition of cCbl (unknown origin) by TR-FRET assay
[3] = Stability in human liver microsome assessed as intrinsic clearance; type: ADME; details: liver microsomes, read-out: CLH
[4] = biological target: T1, E3 ubiquitin-protein ligase CBL-B (Homo sapiens, UniProt Q13191); assay: Inhibition of biotinylated recombinant Cbl-b (36 to 427 residues)(unknown origin) expressed in Escherichia coli BL21(DE3) Tuner cells using a FAM-labeled probe by TR-FRET assay
T1 sequence (Q13191 whole entry, the tested form may be a part): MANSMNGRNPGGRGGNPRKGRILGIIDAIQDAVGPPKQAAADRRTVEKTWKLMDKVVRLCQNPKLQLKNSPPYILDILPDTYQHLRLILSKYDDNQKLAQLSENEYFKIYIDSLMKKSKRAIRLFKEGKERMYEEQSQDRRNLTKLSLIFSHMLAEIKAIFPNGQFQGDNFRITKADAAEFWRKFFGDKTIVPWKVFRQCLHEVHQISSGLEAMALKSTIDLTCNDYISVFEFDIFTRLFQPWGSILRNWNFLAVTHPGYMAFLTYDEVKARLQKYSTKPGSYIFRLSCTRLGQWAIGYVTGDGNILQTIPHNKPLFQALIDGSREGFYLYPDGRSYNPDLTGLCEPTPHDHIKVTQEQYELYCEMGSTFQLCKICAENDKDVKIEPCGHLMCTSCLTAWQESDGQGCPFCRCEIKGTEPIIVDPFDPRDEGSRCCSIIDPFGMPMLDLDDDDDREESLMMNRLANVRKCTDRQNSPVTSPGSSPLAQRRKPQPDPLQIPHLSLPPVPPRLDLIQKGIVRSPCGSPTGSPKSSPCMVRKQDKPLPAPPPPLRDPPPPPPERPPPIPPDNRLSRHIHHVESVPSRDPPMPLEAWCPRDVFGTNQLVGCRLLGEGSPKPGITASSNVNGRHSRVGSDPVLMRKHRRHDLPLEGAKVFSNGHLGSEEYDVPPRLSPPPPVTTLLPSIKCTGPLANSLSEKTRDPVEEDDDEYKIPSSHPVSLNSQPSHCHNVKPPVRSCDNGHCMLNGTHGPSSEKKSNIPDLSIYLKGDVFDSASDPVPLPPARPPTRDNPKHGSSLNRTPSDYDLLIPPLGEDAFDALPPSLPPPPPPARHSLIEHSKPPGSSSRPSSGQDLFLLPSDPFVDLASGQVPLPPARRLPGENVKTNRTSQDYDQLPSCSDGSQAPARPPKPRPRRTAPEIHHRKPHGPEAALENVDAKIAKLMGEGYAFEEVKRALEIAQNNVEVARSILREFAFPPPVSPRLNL

[5] = Lipophilicity, logD of compound at pH 7.4; type: physicochemical; details: buffer
[6] = Induction of IL-2 production in human T cells; type: functional, cell-based, T-cell
[7] = Clearance in human hepatocytes assessed as measured per million cells at 0.1 to 1 uM measured for 120 mins by LC-MS/MS analysis; type: ADME, cell-based, Hepatocyte; details: dose 0.1-1 µM, read-out: CLH
[8] = biological target: T1, E3 ubiquitin-protein ligase CBL-B; assay: Inhibition of biotinylated recombinant Cbl-b (36 to 427 residues)(unknown origin) expressed in Escherichia coli BL21(DE3) Tuner cells assessed as decrease in ZAP70 ubiquitination incubated for 60 mins in presence of Ub-FITC/ATP by TR-FRET assay
[9] = biological target: T1, E3 ubiquitin-protein ligase CBL-B; assay: Inhibition of biotinylated recombinant Cbl-b (36 to 427 residues)(unknown origin) expressed in Escherichia coli BL21(DE3) Tuner cells assessed as decrease in Cbl-b auto-ubiquitination incubated for 60 mins in presence of Ub-FITC/ATP by TR-FRET assay
[10] = Clearance in CD1 mouse at 0.5 mg/kg, iv measured for 24 hrs by LC-MS/MS analysis; type: ADME, organism-based; details: in vivo
[11] = AUC (infinity) in Wistar Han rat at 1 mg/kg, po measured for 24 hrs by LC-MS/MS analysis; type: ADME, organism-based; details: in vivo
[12] = Cmax in CD1 mouse at 1 mg/kg, po measured for 24 hrs by LC-MS/MS analysis; type: ADME, organism-based; details: in vivo
[13] = Volume of distribution at steady state in Wistar Han rat at 0.5 mg/kg, iv measured for 24 hrs by LC-MS/MS analysis; type: ADME, organism-based; details: in vivo, read-out: Vdss
[14] = AUC (infinity) in CD1 mouse at 1 mg/kg, po measured for 24 hrs by LC-MS/MS analysis; type: ADME, organism-based; details: in vivo
[15] = Clearance in Wistar Han rat at 0.5 mg/kg, iv measured for 24 hrs by LC-MS/MS analysis; type: ADME, organism-based; details: in vivo
[16] = Half life in CD1 mouse at 0.5 mg/kg, iv measured for 24 hrs by LC-MS/MS analysis; type: ADME, organism-based; details: in vivo
[17] = Oral bioavailability in Wistar Han rat at 1 mg/kg measured for 24 hrs by LC-MS/MS analysis; type: ADME, organism-based; details: in vivo
[18] = Half life in Wistar Han rat at 0.5 mg/kg, iv measured for 24 hrs by LC-MS/MS analysis; type: ADME, organism-based; details: in vivo
[19] = Cmax in Wistar Han rat at 1 mg/kg, po measured for 24 hrs by LC-MS/MS analysis; type: ADME, organism-based; details: in vivo
[20] = Tmax in CD1 mouse at 1 mg/kg, po measured for 24 hrs by LC-MS/MS analysis; type: ADME, organism-based; details: in vivo
[21] = Volume of distribution at steady state in CD1 mouse at 0.5 mg/kg, iv measured for 24 hrs by LC-MS/MS analysis; type: ADME, organism-based; details: in vivo, read-out: Vdss
[22] = Tmax in Wistar Han rat at 1 mg/kg, po measured for 24 hrs by LC-MS/MS analysis; type: ADME, organism-based; details: in vivo
[23] = Oral bioavailability in CD1 mouse at 1 mg/kg measured for 24 hrs by LC-MS/MS analysis; type: ADME, organism-based; details: in vivo

Row | SMILES | hepatocyte CLint at up to 1 µM [1] | IC50 [2] | microsomal CLint [3] | IC50 [4] | logD [5] | EC50 ([6]; Homo sapiens, T-cell) | further results
1 | Cn1cc(Cn2cc(C(F)(F)F)cc(-c3cccc([C@]4(c5nncn5C)C[C@@H](C)C4)c3)c2=O)nn1 | 8.1 µL/min/1e6 cells | 40 nM | 79 µL/min/mg | 30 nM | 2.3 | 1680 nM | –
2 | Cn1cnnc1C[C@]1(c2cccc(-c3cc(C(F)(F)F)c[nH]c3=O)c2)C[C@H](C#N)C1 | – | 960 nM | 6.8 µL/min/mg | 160 nM | 1.1 | > 30000 nM | –
3 | Cn1cnnc1[C@]1(c2cccc(-n3cc(C(F)(F)F)ccc3=O)c2)C[C@H](C)C1 | – | 10300 nM | 15 µL/min/mg | 2100 nM | 1.6 | – | –
4 | Cc1nnc(Cn2cc(C(F)(F)F)cc(-c3cccc([C@]4(c5nncn5C)C[C@@H](C)C4)c3)c2=O)o1 | 7.8 µL/min/1e6 cells | 330 nM | 29 µL/min/mg | 70 nM | 1.7 | 2860 nM | hepatocyte CLint at up to 1 µM [7]: 1.7 µL/min/1e6 cells
5 | Cn1cnc(Cn2cc(C(F)(F)F)cc(-c3cccc([C@]4(c5nncn5C)C[C@@H](C)C4)c3)c2=O)c1 | 32 µL/min/1e6 cells | 190 nM | 130 µL/min/mg | 50 nM | 2.4 | 2530 nM | –
6 | CN1CCC(Cn2cc(C(F)(F)F)cc(-c3cccc([C@]4(c5nncn5C)C[C@@H](C)C4)c3)c2=O)CC1 | 13 µL/min/1e6 cells | 460 nM | 47 µL/min/mg | 74 nM | 1.3 | 16700 nM | –
7 | CC#CCn1cc(C(F)(F)F)cc(-c2cccc([C@]3(c4nncn4C)C[C@@H](C)C3)c2)c1=O | 21 µL/min/1e6 cells | 160 nM | 76 µL/min/mg | 34 nM | 3.3 | 850 nM | –
8 | Cn1cc(C(F)(F)F)cc(-c2cccc([C@]3(c4nncn4C)C[C@@H](C)C3)c2)c1=O | 16 µL/min/1e6 cells | 880 nM | 37 µL/min/mg | 145 nM | 2.4 | 5890 nM | –
9 | Cn1cnnc1[C@@H](c1cccc(-c2cc(C(F)(F)F)c[nH]c2=O)c1)C1CCC1 (racemic) | – | 410 nM | 25 µL/min/mg | 59 nM | 2.5 | 5290 nM | –
10 | COc1c[nH]c(=O)c(-c2cccc([C@]3(c4nncn4C)C[C@@H](C)C3)c2)c1 | – | 11600 nM | 9.7 µL/min/mg | 2680 nM | 1.5 | – | –
11 | Cn1cc(C(F)(F)F)c2cc(-c3cccc([C@]4(c5nncn5C)C[C@@H](C)C4)c3)c(=O)[nH]c21 | – | 860 nM | 83 µL/min/mg | 190 nM | 3.8 | – | –
12 | C[C@@H](C#N)n1cc(C(F)(F)F)cc(-c2cccc([C@]3(c4nncn4C)C[C@@H](C)C3)c2)c1=O | 12 µL/min/1e6 cells | 50 nM | 85 µL/min/mg | 40 nM | 2.2 | 440 nM | –
13 | C[C@H](c1cnn(C)c1)n1cc(C(F)(F)F)cc(-c2cccc([C@]3(c4nncn4C)C[C@@H](C)C3)c2)c1=O | 21 µL/min/1e6 cells | – | 220 µL/min/mg | – | 2.9 | 590 nM | –
14 | Cn1cnnc1[C@]1(c2cccc(-c3cc(C4CC4)c[nH]c3=O)c2)C[C@H](C)C1 | – | 1340 nM | 29 µL/min/mg | 360 nM | 2.4 | – | –
15 | C[C@@H](COCCC(=O)N1CCN2c3ncc(C(F)(F)F)cc3NC(=O)C2C1)Nc1cn[nH]c(=O)c1C(F)(F)F (stereo partly drawn) | – | – | – | – | – | – | IC50 [8]: 26.9 nM; IC50 [9]: 30.7 nM
16 | Cn1cnnc1[C@]1(c2cccc(-c3cc(C(F)(F)F)ccc3O)c2)C[C@H](C)C1 | – | > 100000 nM | 21 µL/min/mg | > 100000 nM | 4.4 | – | –
17 | Cn1cnnc1[C@]1(c2cccc(-c3nc(C(F)(F)F)c[nH]c3=O)c2)C[C@H](C)C1 | – | 6550 nM | 15 µL/min/mg | 890 nM | 2.1 | – | –
18 | Cn1cc(Cn2cc(C(F)(F)F)cc(-c3cccc([C@]4(c5nncn5C)C[C@@H](C)C4)c3)c2=O)cn1 | 9.7 µL/min/1e6 cells | 200 nM | 200 µL/min/mg | 40 nM | 2.7 | 3000 nM | –
19 | Cn1cnnc1[C@]1(c2cccc(-c3cc(OC(F)(F)F)c[nH]c3=O)c2)C[C@H](C)C1 | – | 1700 nM | 3 µL/min/mg | 310 nM | 2.6 | – | –
20 | Cn1cnnc1[C@]1(c2cccc(-c3cc(C(F)(F)F)c[nH]c3=O)c2)C[C@H](C)C1 | 16 µL/min/1e6 cells | 580 nM | 2.5 µL/min/mg | 84 nM | 3.58 | – | –
21 | CN1CC[C@H](Cn2cc(C(F)(F)F)cc(-c3cccc([C@]4(c5nncn5C)C[C@@H](C)C4)c3)c2=O)C1 | 2.4 µL/min/1e6 cells | 330 nM | 13 µL/min/mg | 50 nM | 1.1 | 10800 nM | –
22 | Cc1c[nH]c(=O)c(-c2cccc([C@]3(c4nncn4C)C[C@@H](C)C3)c2)c1 | – | 6300 nM | 3 µL/min/mg | 1470 nM | 2.6 | – | –
23 | CC#C[C@H](C)n1cc(C(F)(F)F)cc(-c2cccc([C@]3(c4nncn4C)C[C@@H](C)C3)c2)c1=O | 24 µL/min/1e6 cells | 40 nM | 190 µL/min/mg | 30 nM | 3.9 | 460 nM | –
24 | C[C@@H](c1cnn(C)c1)n1cc(C(F)(F)F)cc(-c2cccc([C@]3(c4nncn4C)C[C@@H](C)C3)c2)c1=O | 6.4 µL/min/1e6 cells | – | 160 µL/min/mg | – | 2.8 | – | clearance [10]: 100 mL/min/kg; AUC(0-inf) [11]: 46 ng·h/mL; Cmax [12]: 35 ng/mL; Vd [13]: 1.6 L/kg; AUC(0-inf) [14]: 30 ng·h/mL; hepatocyte CLint at up to 1 µM [7]: 8.7 µL/min/1e6 cells; clearance [15]: 55 mL/min/kg; half-life [16]: 18 min; bioavailability [17]: 15%; half-life [18]: 27 min; Cmax [19]: 21 ng/mL; Tmax [20]: 4.98 min; Vd [21]: 1.3 L/kg; Tmax [22]: 45 min; bioavailability [23]: 19%; EC50 ([6]; t-cell): 230 nM
25 | Cn1cnnc1C1(c2cccc(-c3cc(C(F)(F)F)c[nH]c3=O)c2)CCC1 | – | 2200 nM | 14 µL/min/mg | 340 nM | 2.1 | 3980 nM | –
